Test results: patent publication US20070248657A1, “Multi-compartment transdermal pain control device” (priority 2006, published 2007)
Read-outs that look alike come from different tables or passages of the source.

Columns and labels:
[1] = human

SMILES	flux through human cadaver epidermis (clinical significance) (human, pH 8.6)	flux through human cadaver epidermis (clinical significance) (pH 5.6)	flux through human cadaver epidermis (clinical significance) (pH 7.3)	Cumulative Flux ([1]; 0 h) [μg/cm^2]	Cumulative Flux ([1]; 3 h) [μg/cm^2]	Cumulative Flux ([1]; 6 h) [μg/cm^2]	Cumulative Flux ([1]; 9 h) [μg/cm^2]	Cumulative Flux ([1]; 24 h) [μg/cm^2]	Cumulative Flux ([1]; 48 h) [μg/cm^2]	Cumulative Flux ([1]; 72 h) [μg/cm^2]	flux through human cadaver epidermis (clinical significance) (pH 8.6)
COc1ccc2c(c1)[C@]13CCCC[C@@H]1[C@H](C2)N(C)CC3 [Dextromethorphan, dextromethorphan]	higher than at a pH of 7.3	clinically insignificant	remains clinically insignificant	–	–	–	–	–	–	–	–
O=C(c1ccccc1)c1ccc2n1CCC2C(=O)O (stereo not shown) [Ketorolac, ketorolac tromethamine]	–	clinically significant	decreased to a clinically insignificant level	0	24	7	11	100	412	726	remains clinically insignificant
